Numbers after ± are expanded uncertainties.
Experiment: xn = mol fraction of the nth substance listed
Settings: Liquid; for viscosity: 101 kPa, Capillary tube (Ostwald / Ubbelohde) method; for mass density: 101.3 kPa

CCC(C)Cl (configuration not stated) [2-chlorobutane] + CC(C)OC(C)C
Settings | mass density [kg/m3] | viscosity [mPa·s]
283.15 K, x1 = 0.0519 | 740.159 ± 0.9 | 0.3683 ± 0.004
283.15 K, x1 = 0.0988 | 745.897 ± 0.89 | 0.3716 ± 0.004
283.15 K, x1 = 0.2006 | 758.792 ± 0.87 | 0.3796 ± 0.0041
283.15 K, x1 = 0.3211 | 774.756 ± 0.83 | 0.3899 ± 0.0042
283.15 K, x1 = 0.4201 | 788.575 ± 0.81 | 0.3991 ± 0.0043
283.15 K, x1 = 0.532 | 804.971 ± 0.78 | 0.4101 ± 0.0044
283.15 K, x1 = 0.6244 | 819.223 ± 0.74 | 0.4199 ± 0.0045
283.15 K, x1 = 0.726 | 835.602 ± 0.71 | 0.431 ± 0.0046
283.15 K, x1 = 0.8163 | 850.907 ± 0.68 | 0.4413 ± 0.0046
283.15 K, x1 = 0.8817 | 862.411 ± 0.66 | 0.4489 ± 0.0047
283.15 K, x1 = 0.9634 | 877.39 ± 0.63 | 0.4587 ± 0.0048
283.15 K, x1 = 1 | 884.34 ± 0.61 | 0.4631 ± 0.0048
288.15 K, x1 = 0.0519 | 734.981 ± 0.92 | 0.3519 ± 0.0039
288.15 K, x1 = 0.0988 | 740.712 ± 0.9 | 0.3549 ± 0.0039
288.15 K, x1 = 0.2006 | 753.569 ± 0.88 | 0.3621 ± 0.004
288.15 K, x1 = 0.3211 | 769.483 ± 0.84 | 0.3713 ± 0.004
288.15 K, x1 = 0.4201 | 783.251 ± 0.82 | 0.3795 ± 0.0041
288.15 K, x1 = 0.532 | 799.602 ± 0.79 | 0.3894 ± 0.0042
288.15 K, x1 = 0.6244 | 813.814 ± 0.76 | 0.398 ± 0.0043
288.15 K, x1 = 0.726 | 830.144 ± 0.72 | 0.408 ± 0.0044
288.15 K, x1 = 0.8163 | 845.414 ± 0.69 | 0.4172 ± 0.0044
288.15 K, x1 = 0.8817 | 856.901 ± 0.67 | 0.424 ± 0.0045
288.15 K, x1 = 0.9634 | 871.819 ± 0.64 | 0.4326 ± 0.0046
288.15 K, x1 = 1 | 878.756 ± 0.62 | 0.4365 ± 0.0046
293.15 K, x1 = 0.0519 | 729.792 ± 0.93 | 0.3371 ± 0.0038
293.15 K, x1 = 0.0988 | 735.485 ± 0.91 | 0.34 ± 0.0038
293.15 K, x1 = 0.2006 | 748.303 ± 0.89 | 0.3468 ± 0.0038
293.15 K, x1 = 0.3211 | 764.161 ± 0.86 | 0.3555 ± 0.0039
293.15 K, x1 = 0.4201 | 777.889 ± 0.83 | 0.3632 ± 0.004
293.15 K, x1 = 0.532 | – | 0.3725 ± 0.0041
293.15 K, x1 = 0.6244 | 808.369 ± 0.77 | 0.3806 ± 0.0041
293.15 K, x1 = 0.726 | 824.657 ± 0.73 | 0.39 ± 0.0042
293.15 K, x1 = 0.8163 | 839.877 ± 0.7 | 0.3987 ± 0.0043
293.15 K, x1 = 0.8817 | 851.332 ± 0.68 | 0.4051 ± 0.0043
293.15 K, x1 = 0.9634 | 866.214 ± 0.65 | 0.4131 ± 0.0044
293.15 K, x1 = 1 | 873.13 ± 0.63 | 0.4167 ± 0.0044
298.15 K, x1 = 0.0519 | 724.535 ± 0.94 | 0.321 ± 0.0036
298.15 K, x1 = 0.0988 | 730.22 ± 0.93 | 0.3239 ± 0.0036
298.15 K, x1 = 0.2006 | 742.995 ± 0.9 | 0.3306 ± 0.0037
298.15 K, x1 = 0.3211 | 758.802 ± 0.87 | 0.3392 ± 0.0038
298.15 K, x1 = 0.4201 | 772.485 ± 0.84 | 0.3467 ± 0.0038
298.15 K, x1 = 0.532 | 788.75 ± 0.81 | 0.3559 ± 0.0039
298.15 K, x1 = 0.6244 | 802.882 ± 0.78 | 0.3639 ± 0.004
298.15 K, x1 = 0.726 | 819.123 ± 0.74 | 0.3731 ± 0.0041
298.15 K, x1 = 0.8163 | 834.307 ± 0.71 | 0.3817 ± 0.0041
298.15 K, x1 = 0.8817 | 845.724 ± 0.69 | 0.3879 ± 0.0042
298.15 K, x1 = 0.9634 | 860.57 ± 0.66 | 0.3959 ± 0.0043
298.15 K, x1 = 1 | 867.474 ± 0.65 | 0.3993 ± 0.0043
303.15 K, x1 = 0.0519 | 719.276 ± 0.95 | 0.3033 ± 0.0035
303.15 K, x1 = 0.0988 | 724.919 ± 0.94 | 0.3061 ± 0.0035
303.15 K, x1 = 0.2006 | 737.649 ± 0.91 | 0.3127 ± 0.0035
303.15 K, x1 = 0.3211 | 753.411 ± 0.88 | 0.3212 ± 0.0036
303.15 K, x1 = 0.4201 | 767.06 ± 0.85 | 0.3286 ± 0.0037
303.15 K, x1 = 0.532 | 783.263 ± 0.82 | 0.3375 ± 0.0038
303.15 K, x1 = 0.6244 | 797.355 ± 0.79 | 0.3454 ± 0.0038
303.15 K, x1 = 0.726 | 813.555 ± 0.76 | 0.3545 ± 0.0039
303.15 K, x1 = 0.8163 | 828.698 ± 0.72 | 0.3628 ± 0.004
303.15 K, x1 = 0.8817 | 840.084 ± 0.7 | 0.369 ± 0.004
303.15 K, x1 = 0.9634 | 854.895 ± 0.67 | 0.3767 ± 0.0041
303.15 K, x1 = 1 | 861.779 ± 0.66 | 0.38 ± 0.0041
308.15 K, x1 = 0.0519 | 713.939 ± 0.96 | 0.2887 ± 0.0033
308.15 K, x1 = 0.0988 | 719.569 ± 0.95 | 0.2915 ± 0.0034
308.15 K, x1 = 0.2006 | 732.261 ± 0.92 | 0.2977 ± 0.0034
308.15 K, x1 = 0.3211 | 747.973 ± 0.89 | 0.3058 ± 0.0035
308.15 K, x1 = 0.4201 | 761.571 ± 0.86 | 0.3127 ± 0.0035
308.15 K, x1 = 0.532 | 777.737 ± 0.83 | 0.3212 ± 0.0036
308.15 K, x1 = 0.6244 | 791.784 ± 0.8 | 0.3287 ± 0.0037
308.15 K, x1 = 0.726 | 807.944 ± 0.77 | 0.3374 ± 0.0038
308.15 K, x1 = 0.8163 | 823.046 ± 0.74 | 0.3453 ± 0.0038
308.15 K, x1 = 0.8817 | 834.402 ± 0.71 | 0.3511 ± 0.0039
308.15 K, x1 = 0.9634 | 849.179 ± 0.68 | 0.3584 ± 0.0039
308.15 K, x1 = 1 | 856.044 ± 0.67 | 0.3615 ± 0.004
313.15 K, x1 = 0.0519 | 708.573 ± 0.97 | 0.2752 ± 0.0032
313.15 K, x1 = 0.0988 | 714.181 ± 0.96 | 0.2779 ± 0.0033
313.15 K, x1 = 0.2006 | 726.833 ± 0.93 | 0.2838 ± 0.0033
313.15 K, x1 = 0.3211 | 742.484 ± 0.9 | 0.2914 ± 0.0034
313.15 K, x1 = 0.4201 | 756.049 ± 0.87 | 0.2981 ± 0.0034
313.15 K, x1 = 0.532 | 772.166 ± 0.84 | 0.3062 ± 0.0035
313.15 K, x1 = 0.6244 | 786.18 ± 0.81 | 0.3133 ± 0.0036
313.15 K, x1 = 0.726 | 802.287 ± 0.78 | 0.3215 ± 0.0036
313.15 K, x1 = 0.8163 | 817.349 ± 0.75 | 0.329 ± 0.0037
313.15 K, x1 = 0.8817 | 828.683 ± 0.72 | 0.3345 ± 0.0037
313.15 K, x1 = 0.9634 | 843.42 ± 0.69 | 0.3413 ± 0.0038
313.15 K, x1 = 1 | 850.266 ± 0.68 | 0.3443 ± 0.0038

From the NIST ThermoML archive (doi:10.1007/s10765-010-0737-5)
